# Reference: patent publication US20250205230A1 (priority 2022, published 2025)
# Read-outs that look alike come from different tables or passages of the source.
# How the values were obtained:
# VSVΔ51M [1] = format: cell-based, vesicular stomatitis Indiana virus (VSV); settings: 10 μM
# PERK [2] = format: cell-based; settings: for increase in eIF2α phosphorylation: 20 μM, 0.1 MOI, lysed 24 h; for eIF2α phosphorylation (eIF2α-P relative to total eIF2α), in words: HEK293 infected at 0.1 MOI, 10 or 20 μM, lysed 24 hours post-infection
# VSVΔ51M [3] = format: cell-based, vesicular stomatitis Indiana virus (VSV)
# Lipophilicity (logD7.4) = settings: for logD: pH 7.4
# [4] = test system: TGEV (an alpha-coronavirus); settings: cited from earlier work
# SARS-CoV-2 = format: cell-based
# [5] = test system: asialoglycoprotein receptor H2b; assay: Oligosaccharide maturation of H2b in transfected HEK293 cells (western blot); format: cell-based; settings: Endo H
# ACE2 = assay: Oligosaccharide maturation of ACE2 in transfected HEK293 cells (western blot); format: cell-based; settings: Endo H or N-glycanase
# PERK [6] = assay: eIF2α phosphorylation in non-infected HEK293 cells; format: cell-based; settings: lysed 24 hours post-treatment
# [7] = treatment began at the start of the infection
Compound,"inhibition of replication, comparison between compounds (VSVΔ51M [1])",reduction of titer of infectious virions (VSVΔ51M [1]),increase in eIF2α phosphorylation (PERK [2]; [7]),"eIF2α phosphorylation (eIF2α-P relative to total eIF2α), in words (PERK [2])","infectivity (VSV-G level), in words (VSVΔ51M [3])",decrease in infectivity (VSV-G relative to actin) (VSVΔ51M [3]; 20 μM),solubility (Solubility) [µM],solubility compared to MK-28 (Solubility; ratio GLB7 vs MK-28),"lipophilicity, in words (Lipophilicity (logD7.4); compared with MK-28)",logD (Lipophilicity (logD7.4)),expression of TGEV viral proteins and viral titers [4],reduction of SARS-CoV-2 replication (titer of infectious virions) (SARS-CoV-2),effect on maturation of H2b [5],effect on maturation of ACE2 (ACE2),increase in eIF2α phosphorylation (PERK [2]; treatment began 3 hours after the start of the infection),increase in eIF2α phosphorylation (PERK [6]; 10 μM),increase in eIF2α phosphorylation (PERK [6]; 20 μM)
"Oc1ccc(C=NNc2nc(-c3ccccc3)cc(-c3ccccc3)n2)cc1O (racemic) [GLB7, 4-((2-(4,6-diphenylpyrimidin-2-yl)hydrazono)methyl)benzene-1,2-diol]",greater inhibition than MK-28,several orders of magnitude,about 1.5 fold,strong increase,major decrease in infectivity,about 3 fold,16,more than 10 fold,decreased lipophilicity,3.6,,,,,,,
O=C(COc1ccc(Cl)cc1)NC1CCC(NC(=O)COc2ccc(Cl)cc2)CC1 (centres unmarked) [ISRIB],,,,,,,,,,,increased,,,,,,
"CN(N=Cc1ccc(O)c(O)c1)c1nc(-c2ccccc2)cc(-c2ccccc2)n1 [MK-28, 4-((2-(4,6-diphenylpyrimidin-2-yl)-2-methylhydrazineylidene)methyl) benzene-1,2-diol]",greater inhibition of replication than did GLB7,several orders of magnitude,about 5 fold,strong increase,,,1.4,,,4.5,,10- to 100 fold,no effect,no effect,about 4 fold,about 1.4 fold,about 1.1 fold
